Patent US8557816B2, “Aurora kinase modulators and method of use” (Amgen Inc., priority 2007, dated 2013)

Legend:
AuroraB = target: T1, AuroraB (Homo sapiens, UniProt Q96GD4); assay: AuroraB Homogeneous Time Resolved Fluorescent (HTRF) kinase assay; type: biochemical; settings: average; read-out: AurB_IC50_IP (uM Avg)
T1 construct: 20 μL of AuroraB FL H is for a final volume of 41 μL; His
Method in brief: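 Full-length His-tagged kinase phosphorylates biotinylated Histone H3 (0.1 μM final) with ATP in pH 7.5 HEPES containing MgCl, MnCl, DTT and BSA for about 90 min. EDTA-containing detection mix with SA-APC and Eu-anti-phosphoHistone H3 then equilibrated about 60 min; HTRF read with 320 nm excitation, emissions 615/655 nm.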

AuroraA-TPX2 = target: T2, AuroraA-TPX2 (Homo sapiens, UniProt O14965); assay: AuroraA-TPX2 Homogeneous Time Resolved Fluorescent (HTRF) kinase assay; type: biochemical; settings: average; read-out: AurA_IC50_IP (uM Avg)
T2 construct: 20 μL of AuroraA-TPX2 KD GST for a final volume of about 41 μL; GST
T2 sequence (O14965 133-383 limits assumed): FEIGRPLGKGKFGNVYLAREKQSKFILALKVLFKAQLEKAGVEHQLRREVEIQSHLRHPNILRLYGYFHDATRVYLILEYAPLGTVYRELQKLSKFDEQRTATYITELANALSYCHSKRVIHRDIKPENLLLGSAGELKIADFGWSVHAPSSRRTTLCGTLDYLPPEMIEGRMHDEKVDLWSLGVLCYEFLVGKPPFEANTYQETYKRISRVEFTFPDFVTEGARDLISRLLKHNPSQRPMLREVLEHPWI
T2 sequence (Q9ULW0 1-43 partner limits assumed): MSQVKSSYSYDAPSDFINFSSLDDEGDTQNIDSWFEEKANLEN
Method in brief: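 HTRF read-out (Eu 615 nm to APC 655 nm) of phosphorylated biotin-PLK, detected with 0.02 nM europium anti-phosphoPLK antibody and 0.0005 mg/mL SA-APC after overnight equilibration.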

HeLa cells = assay: HeLa cell 24 hr ploidy assay (DNA content); type: cell-based; settings: 4N DNA content, average, read-out: 24h_4N Ploidy EC50_IP (uM Avg)
Procedure: HeLa Cell 24 hr Ploidy Assay Protocol
The purpose of this assay is to evaluate the ability of selected individual compounds to induce Deoxyribonucleic acid (DNA) content (ploidy) in cells through failed cell division. Cell cycle analysis is a rapid and efficient way to evaluate the status of DNA content (ploidy) of a given cell. HeLa cells (1×10^4 HeLa cells/well) in 100 ul of media (MEM+10% FBS) were plated in 96-well plates (Packard View) and cultured for 24 hrs at 37° C. maintained in a 5% CO2 atmosphere. […] The compounds were serially diluted in DMSO (0.25% final concentration). The cells were fixed (3.7% Formaldehyde and 1% glutaraldehyde) and permeabilized (1×PBS with 1% BSA and 0.2% Triton X-100) in preparation for nuclear staining. The well plates were stained for 45 minutes at RT in the dark using Hoechest 33342 nuclear stain at 0.5 ug.ml (Stock of 10 mg/ml, Invitrogen, CA, Cat # H3570). The nuclear stain was removed by aspiration and the cells were washed with wash buffer. A Cellomics Array Scan Vti plate reader was used to acquire the DNA ploidy data of the cells using Cell Cycle bioapplication. Numbers for each of “valid cell count/well”, “% of 4N cells” and “% of >4Ncells” were calculated with the assistance of an Activity Base 5.1ca software and dose curves were generated using an XLFit software. With XLFit, final EC50 IP and EC50 transit values, as well as the Max and Min, were calculated for each curve.

HCT116 xenografts = assay: HCT116 xenograft model (human colon carcinoma), tumor growth inhibition; type: in vivo; settings: p.o., athymic nude mice
Procedure: Compounds of the present invention were evaluated in HCT116 xenografts, a human colon carcinoma model. […] These cells were grown as subcutaneous xenografts in female HSD (Harlan Sprague Dawley) athymic nude mice. Mice were implanted subcutaneously with 2×10^6 cells in matrigel on day 0. Treatment was initiated on day 10 with compounds of the invention at the indicated dosage p.o for 2 consecutive-days per week (intermittent schedule, such as 2 days on-5 days off) or 7-days (continuous schedule) per week, for a selected number of weeks. For example, in one study, animals were dosed with selected compound samples BID on an intermittent dosing paradigm of two days on and then 5 days off per week, for four weeks (four dosing cycles) at 15, 7.5, and 3.75 mg/kg. Tumor growth inhibition and body weights were measured throughout the study and compared to the vehicle control group. All groups were provided nutritional supplements on a daily basis throughout the study to maintain body weight. Terminal neutrophil counts were taken at the end of this study. Measures were made by ANOVA followed by Scheffe post hoc test using StatView software v5.0.1.
10 Flasks containing a total of 7.68×10^8 HCT116 tumor cells were harvested for tumor cell implantation. HCT 116 cells were re-suspended to a cell concentration of about 2×10^7 cells/ml in serum-free McCoys 5A media+50% matrigel. Cell viability was measured to be about 99.3%.
Female Athymic Nude mice approximately 14 weeks of age (Harlan Sprague Dawley) were used for the experiment. Mice were housed five per filter-capped cage in sterile housing in an environmentally controlled room (temperature 23±2° C., relative humidity 50±20%) on a 12-hr light/dark cycle. […] On Day 9, tumor-bearing mice were measured and randomized into five groups (n=10). […] During the dosing period, mouse tumor volumes were measured with a digital caliper and weighed twice per week. Tumor volumes were calculated as follows: Tumor Volume (mm^3) [(W^2×L)/2] where width (W) is defined as the smaller of the 2 measurements and length (L) is defined as the larger of the 2 measurements.

T1 sequence (Q96GD4 whole entry): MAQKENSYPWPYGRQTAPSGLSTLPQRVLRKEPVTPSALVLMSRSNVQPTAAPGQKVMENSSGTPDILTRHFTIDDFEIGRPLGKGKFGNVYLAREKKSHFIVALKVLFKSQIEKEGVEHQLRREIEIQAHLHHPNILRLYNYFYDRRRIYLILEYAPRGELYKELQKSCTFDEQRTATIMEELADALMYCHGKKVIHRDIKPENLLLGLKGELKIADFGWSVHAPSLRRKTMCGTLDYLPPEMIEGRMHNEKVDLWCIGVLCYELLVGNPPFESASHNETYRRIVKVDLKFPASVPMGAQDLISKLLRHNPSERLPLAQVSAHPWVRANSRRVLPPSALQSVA

Question: What does the source list for “4-(4,5-dimethylthiophen-2-yl)-N-(4-(7-methoxy-1,5-naphthyridin-4-yloxy)phenyl)phthalazin-1-amine [Example 34]”?
Answer: IC50 (AuroraB): 0.01 µM; IC50 (AuroraA-TPX2): 0.013 µM; EC50 (HeLa cells): 0.062 µM

Question: “4-(4-chlorophenyl)-N-(3-fluoro-4-(4-quinolinyloxy)phenyl)-1-phthalazinamine [compound 244]” was tested. Which IC50 (AuroraB) did it give?
Answer: 0.003 µM

Question: And the IC50 (AuroraA-TPX2)?
Answer: 0.048 µM

Question: And the EC50 (HeLa cells)?
Answer: 0.04 µM

Question: How did the IC50 (AuroraB) turn out when COc1cnc2c(Oc3ccc(Nc4nnc(-c5ccc(Cl)cc5)c5ccccc45)cc3)ccnc2c1 [Example 160, 4-(4-chlorophenyl)-N-(4-((7-(methyloxy)-1,5-naphthyridin-4-yl)oxy)phenyl)-1-phthalazinamine] was run?
Answer: 0.003 µM

Question: And the IC50 (AuroraA-TPX2)?
Answer: 0.007 µM

Question: What about the “inhibition of tumor growth” value (HCT116 xenografts; 3.75 mg/kg, 2-day dosing scheduling QD) of the same compound?
Answer: ~86%

Question: COc1cnc2c(Oc3ccc(Nc4nnc(-c5ccc6c(c5)OCO6)c5ccccc45)cc3)ccnc2c1 [Example 165, 4-(1,3-benzodioxol-5-yl)-N-(4-((7-(methyloxy)-1,5-naphthyridin-4-yl)oxy)phenyl)-1-phthalazinamine] was tested. Which IC50 (AuroraB) did it give?
Answer: 0.007 µM

Question: And the IC50 (AuroraA-TPX2)?
Answer: 0.009 µM

Question: And the “inhibition of tumor growth” value (HCT116 xenografts; 2.5 mg/kg, 2-day dosing scheduling BID)?
Answer: ~63%

Question: With COc1cnc2c(Sc3ccc(Nc4nnc(-c5ccccc5)c5ccccc45)cc3)ccnc2c1 [Example 207, N-(4-((7-(methyloxy)-1,5-naphthyridin-4-yl)thio)phenyl)-4-phenyl-1-phthalazinamine] as the compound, how does the IC50 (AuroraB) read?
Answer: 0.009 µM

Question: What about the IC50 (AuroraA-TPX2) of the same compound?
Answer: 0.06 µM

Question: And the “inhibition of tumor growth” value (HCT116 xenografts; 5.0 mg/kg, 2-day dosing scheduling QD)?
Answer: ~67%

Question: Which IC50 (AuroraB) does the source give for COc1cnc2c(Oc3ccc(Nc4nnc(N5CC[C@@H]6CCCC[C@H]6C5)c5ccccc45)cc3)ccnc2c1 [compound 587] here?
Answer: 0.033 µM

Question: What about the IC50 (AuroraA-TPX2) of the same compound?
Answer: 0.217 µM

Question: How did the IC50 (AuroraB) turn out when COc1cnc2c(Sc3ccc(Nc4nnc(-c5ccc(C)nc5)c5ccccc45)cc3)ccnc2c1 [compound 588] was run?
Answer: 0.017 µM

Question: And the IC50 (AuroraA-TPX2)?
Answer: 0.051 µM

Question: What does the source list for Cc1csc(-c2nnc(Nc3ccc(Sc4ccnc5ccc(=O)[nH]c45)cc3)c3ccccc23)c1 [compound 589]?
Answer: IC50 (AuroraB): 0.008 µM; IC50 (AuroraA-TPX2): 0.019 µM

Question: For COc1cc(OC)c2c(Oc3ccc(Nc4nnc(-c5ccc(Cl)cc5)c5ccccc45)cc3)ncnc2c1 [compound 590], which IC50 (AuroraB) is on record?
Answer: 0.02 µM

Question: And the IC50 (AuroraA-TPX2)?
Answer: 0.027 µM

Question: For Clc1ccc(-c2nnc(Nc3ccc(Oc4ncnc5ccsc45)cc3)c3ccccc23)cc1 [compound 591], which IC50 (AuroraB) is on record?
Answer: 0.005 µM

Question: What about the IC50 (AuroraA-TPX2) of the same compound?
Answer: 0.25 µM

Question: For N#Cc1ccc2nccc(Oc3ccc(Nc4nnc(-c5ccccc5)c5ccccc45)cc3)c2c1 [compound 592], which IC50 (AuroraB) is on record?
Answer: 0.022 µM

Question: And the IC50 (AuroraA-TPX2)?
Answer: 0.338 µM

Question: Which IC50 (AuroraB) does the source give for COCc1cc(-c2ccccc2)nnc1Nc1ccc(Oc2ccnc3cc(OC)cnc23)cc1 [compound 593] here?
Answer: 0.082 µM

Question: What about the IC50 (AuroraA-TPX2) of the same compound?
Answer: 0.526 µM

Question: CCc1cc(-c2ccc3c(c2)OCO3)nnc1Nc1ccc(Oc2ccnc3cc(OC)cnc23)cc1 [compound 594] was tested. Which IC50 (AuroraB) did it give?
Answer: 0.051 µM

Question: What about the IC50 (AuroraA-TPX2) of the same compound?
Answer: 0.094 µM

Question: For CCc1cc(-c2ccc(C)cc2)nnc1Nc1ccc(Nc2ccnc3cc(OC)cnc23)cc1 [compound 595], which IC50 (AuroraB) is on record?
Answer: 0.023 µM

Question: And the IC50 (AuroraA-TPX2)?
Answer: 0.102 µM

Question: What does the source list for CCc1cc(-c2ccc(C)cc2)nnc1Nc1ccc(Nc2ccnc3cc(C#N)ccc23)cc1 [compound 596]?
Answer: IC50 (AuroraB): 0.058 µM; IC50 (AuroraA-TPX2): 0.16 µM

Question: What does the source list for COc1cc2nccc(Sc3ccc(Nc4nnc(-c5ccccc5)c5ccccc45)cc3)c2nc1OC [compound 597]?
Answer: IC50 (AuroraB): 0.681 µM; IC50 (AuroraA-TPX2): 0.246 µM
